# According to PubChem BioAssay AID194 (DTP/NCI, 2004):
# Records with an inconclusive call do not appear.
# Test system: BDF1 mice, B16 melanoma s.c., survival/tumor T/C
# Experiment: NCI In Vivo Anticancer Drug Screen. Data for tumor model B16 Melanoma (subcutaneous) in B6D2F1 (BDF1) mice
# Procedure: The antitumor activity of compounds was measured in mice bearing transplantable tumors. Survival or tumor size were measured and the results are expressed as the measurement made in the treated group (T) divided by the measurement made in the vehicle treated control group (C). The tumor model used in this assay is B16 Melanoma (subcutaneous) in B6D2F1 (BDF1) mice
smiles,measurement,setting,value
CC1(C)CC(O)(C(Cl)c2ccccc2)C(=O)c2ccccc21 (stereo not given),T/C,"endpoint: median survival time, dose: 88.0 mg/kg/injection, schedule: Q01DX009 (ip), vehicle: distilled water + Tween-80, higher = longer survival",96 % of control
same,T/C,"endpoint: median survival time, dose: 133.0 mg/kg/injection, schedule: Q01DX009 (ip), vehicle: distilled water + Tween-80, higher = longer survival",97 % of control
same,T/C,"endpoint: median survival time, dose: 200.0 mg/kg/injection, schedule: Q01DX009 (ip), vehicle: distilled water + Tween-80, higher = longer survival",93 % of control
same,T/C,"endpoint: median survival time, dose: 300.0 mg/kg/injection, schedule: Q01DX009 (ip), vehicle: distilled water + Tween-80, higher = longer survival",89 % of control
same,T/C,"endpoint: median tumor weight (est.), dose: 133.0 mg/kg/injection, schedule: Q01DX009 (ip), vehicle: distilled water + Tween-80, higher = larger tumour",71 % of control
same,T/C,"endpoint: median tumor weight (est.), dose: 200.0 mg/kg/injection, schedule: Q01DX009 (ip), vehicle: distilled water + Tween-80, higher = larger tumour",106 % of control
same,T/C,"endpoint: median tumor weight (est.), dose: 300.0 mg/kg/injection, schedule: Q01DX009 (ip), vehicle: distilled water + Tween-80, higher = larger tumour",91 % of control
O=NN(CCF)C(=O)NC1CCC(=O)NC1=O (stereo not given),T/C,"endpoint: median survival time, dose: 3.11 mg/kg/injection, schedule: Q01DX007 (ip), vehicle: Klucel (hydroxypropylcellulose) (HPC), higher = longer survival",121 % of control
same,T/C,"endpoint: median survival time, dose: 5.18 mg/kg/injection, schedule: Q01DX007 (ip), vehicle: Klucel (hydroxypropylcellulose) (HPC), higher = longer survival",124 % of control
same,T/C,"endpoint: median survival time, dose: 8.64 mg/kg/injection, schedule: Q01DX007 (ip), vehicle: Klucel (hydroxypropylcellulose) (HPC), higher = longer survival",164 % of control
COC(=O)c1csc(-c2csc(CCN)n2)n1,T/C,"endpoint: median survival time, dose: 6.25 mg/kg/injection, schedule: Q01DX009 (ip), vehicle: water, higher = longer survival",89 % of control
same,T/C,"endpoint: median survival time, dose: 12.5 mg/kg/injection, schedule: Q01DX009 (ip), vehicle: water, higher = longer survival",98 % of control
same,T/C,"endpoint: median survival time, dose: 25.0 mg/kg/injection, schedule: Q01DX009 (ip), vehicle: water, higher = longer survival",91 % of control
same,T/C,"endpoint: median survival time, dose: 50.0 mg/kg/injection, schedule: Q01DX009 (ip), vehicle: water, higher = longer survival",117 % of control
same,T/C,"endpoint: median survival time, dose: 100.0 mg/kg/injection, schedule: Q01DX009 (ip), vehicle: water, higher = longer survival",102 % of control
OCCN1CCN(CC/C=C2/c3ccccc3Sc3ccc(C(F)(F)F)cc32)CC1,T/C,"endpoint: median survival time, dose: 1.8 micrograms/kg/injection, schedule: Q01DX009 (ip), vehicle: saline, higher = longer survival",93 % of control
same,T/C,"endpoint: median survival time, dose: 3.7 micrograms/kg/injection, schedule: Q01DX009 (ip), vehicle: saline, higher = longer survival",95 % of control
same,T/C,"endpoint: median survival time, dose: 7.5 micrograms/kg/injection, schedule: Q01DX009 (ip), vehicle: saline, higher = longer survival",109 % of control
same,T/C,"endpoint: median survival time, dose: 15.0 micrograms/kg/injection, schedule: Q01DX009 (ip), vehicle: saline, higher = longer survival",103 % of control
same,T/C,"endpoint: median survival time, dose: 30.0 micrograms/kg/injection, schedule: Q01DX009 (ip), vehicle: saline, higher = longer survival",91 % of control
